≈ marks a conversion by molar mass, not a printed value.
How the values were obtained:
MRSA = assay: Antimicrobial activity against MRSA; assay type: cell-based
Malassezia furfur = assay: Antifungal activity assay (MIC) in PDA media; assay type: cell-based; settings: for M. furfur (MIC): PDA media containing 0.2% yeast extract
Experimental: (§1) Candida albicans and Malassezia furfur were used to carry out the antifungal assay in Potato Dextrose Agar (PDA) media containing 0.2% yeast extract. The Minimum Inhibitory Concentration (MIC) was recorded (Table 1).

Candida albicans = assay: Antifungal activity assay (MIC) in PDA media; assay type: cell-based; settings: for C. albicans (MIC): PDA media containing 0.2% yeast extract
Experimental: as §1

mammalian cell culture = assay: Cell viability (resazurin) coupled with the NFκB assay; assay type: cell-based; settings: concentrations of the NF-κB assay
Experimental: (§2) Anti-inflammatory assay was carried out based on the NFκB expression and IKKβ activity. NFκB expression was tested using PRINCESS® NINA NFκB Assay Kit. P1639C and other related lactone compounds were supplemented to a mammalian cell culture in which NFκB has been stimulated by TNF-α. The assay was also coupled with an in vitro cell toxicity assay. IKKβ was tested using 5-20 mU of IKKβ, which was diluted in 50 mM Tris (pH 7.5), 0.1 mM EGTA, 1 mg/ml BSA, 0.1%, b-Mercaptoethanol. The kinase is assayed against substrate peptide (LDDRHDSGLDSMKDEEY) in a final volume of 25.5 μl containing 50 mM Tris (pH 7.5), 0.1 mM EGTA, 0.1%, b-Mercaptoethanol, 300 μM substrate peptide, 10 mM magnesium acetate and 0.005 mM [33P-g-ATP] (500-1000 cpm/pmole) and incubated for 30 mins at room temperature. Assays are stopped by addition of 50 of 0.5M (3%) orthophosphoric acid. The phosphorylated peptide was harvested on a p81 filterplate and the phosphorylation level was measured by scintillation counts.
Cell viability was carried out by incubation of the cells with resazurin and measuring the absorption at 600 nm against a reference measurement of above 650 nm.

[1] = tested on: anti-oxidant response element (ARE); assay: Antioxidant elicitation assay (ARE-driven luciferase activity) in reporter cell line ARE32; assay type: cell-based; settings: ARE32 cells
Experimental: The cell line ARE32 was incubated with eight concentrations of P1639C and the positive control tert-butylhydroquinone (tBHQ) for 24 hours, and the luciferase activity measured (Luciferase Assay System, Promega). P1639C enhanced induction of ARE-driven luciferase activity up to 18-fold (at a concentration of 30 μM) (FIG. 2b) compared with normal cells without any oxidative induction.
The ARE comparison was also carried out between p1639C (5-hexyl-2(5H)-furanone), 4-decanolide (5-hexyl-2(3H)-furanone) and 2(5H)-furanone.

NF-κB = assay: Anti-inflammatory assay: NFκB activity in TNF-α stimulated mammalian cell culture (PRINCESS NINA NFκB Assay Kit); assay type: cell-based
Experimental: as §2
P1639C was supplemented to the mammalian cell culture with a series of concentration at 0.001 mM, 0.002 mM, 0.005 mM, 0.01 mM, 0.02 mM, 0.05 mM, 0.1 mM, 0.2 mM and 0.5 mM. SEAP provided in the Princess NINA kit was used as a stimulatory control to show normal inflammatory response in cells, whereas BAY11-7082 at a final concentration of 5 μM was used as the positive control of inhibited NF-κB activity. The cell with TNF-α was used as the negative control. The cell response to the supplemented compounds was measured by the 450 nm emission (360 nm excitation) after addition of inactivation buffer and MUP solution.

IKKβ = molecular target: T1, IKKβ (Homo sapiens, UniProt O14920); assay: IKKβ kinase assay (33P phosphorylation of substrate peptide); assay type: biochemical; settings: 50 μM
T1 sequence (O14920 1-756): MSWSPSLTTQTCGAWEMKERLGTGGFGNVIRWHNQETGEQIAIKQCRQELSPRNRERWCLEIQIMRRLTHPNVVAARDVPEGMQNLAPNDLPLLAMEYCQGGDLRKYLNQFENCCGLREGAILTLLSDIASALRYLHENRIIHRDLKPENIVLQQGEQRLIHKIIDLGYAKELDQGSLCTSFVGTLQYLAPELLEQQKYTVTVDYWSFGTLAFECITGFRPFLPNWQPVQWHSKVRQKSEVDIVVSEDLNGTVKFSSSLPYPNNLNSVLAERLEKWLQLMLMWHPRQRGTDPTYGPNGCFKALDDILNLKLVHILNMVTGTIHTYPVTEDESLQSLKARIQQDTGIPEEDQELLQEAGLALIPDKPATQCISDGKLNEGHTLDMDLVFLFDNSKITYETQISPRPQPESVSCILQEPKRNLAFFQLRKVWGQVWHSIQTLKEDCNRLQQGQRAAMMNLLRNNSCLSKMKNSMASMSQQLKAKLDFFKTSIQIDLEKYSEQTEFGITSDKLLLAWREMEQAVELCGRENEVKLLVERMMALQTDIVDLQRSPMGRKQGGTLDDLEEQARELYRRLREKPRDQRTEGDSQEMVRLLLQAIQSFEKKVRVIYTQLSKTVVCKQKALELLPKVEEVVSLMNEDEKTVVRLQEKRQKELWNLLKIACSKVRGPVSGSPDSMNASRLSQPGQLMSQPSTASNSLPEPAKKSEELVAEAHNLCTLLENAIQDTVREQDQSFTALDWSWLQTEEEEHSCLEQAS
Experimental: as §2

Experimental for human hepatocytes: The toxicology assay was carried out using an in vitro human hepatocytes model where human hepatocytes were exposed to varying concentrations of compound [MUT] as well as tamoxifen and chlorpromazine for three hours.

SMILES | MRSA (antimicrobial activity) (MRSA) [µg] | M. furfur (MIC) (Malassezia furfur) [µg] | C. albicans (MIC) (Candida albicans) [µg] | depletion of intracellular ATP (level of toxicity) (human hepatocytes) | further results
CC1=CCC(=O)O1 [5-methyl-2(3H)-furanone] | >20 | 5 to 7 | 5 to 7 |  | 
CC1=CCOC1=O [3-methy1-2(5H)-furanone] | >20 | 5 to 6 | 5 to 7 |  | 
CC1C=CC(=O)O1 (stereo not drawn) [5-methyl-2(5H)-furanone] | >20 | 5 to 7 | 5 to 7 |  | 
CC/C(=C(\c1ccccc1)c1ccc(OCCN(C)C)cc1)c1ccccc1 [tamoxifen] |  |  |  | moderate decreasing rate of intracellular ATP level | 
CN(C)CCCN1c2ccccc2Sc2ccc(Cl)cc21 [chlorpromazine] |  |  |  | moderate decreasing rate of intracellular ATP level | 
CCCCCCC1C=CC(=O)O1 (stereo not drawn) [P1639C, 5-hexylfuran-2(5H)-one] | >10 | <1 | 1 to 1.5 | significant ATP depletion was not observed | cytotoxicity against the testing cells (mammalian cell culture): no significant cytotoxicity; induction of ARE-driven luciferase activity ([1]; 30 μM, 24 hours, compared with normal cells without oxidative induction): up to 18 fold; NF-κB inhibition activity, comparison with known butenolides (NF-κB; 0.05 mM): the only active compound; inhibition of NF-κB mediated inflammatory response (NF-κB; 0.5 mM): almost fully inhibited; IC50 (NF-κB; TNF-α elicited response = 100%, read-out: concentration inhibiting 50% of the NF-κB mediated inflammatory response): 20 µM; IKKβ phosphorylation activity decreased to (IKKβ): 64%±2%; MIC (Malassezia furfur; Malassezia furfur, read-out: MIC against M. furfur): 0.8 µg/mL (≈ 4.76 µM); MIC (Candida albicans; Candida albicans, read-out: MIC against C. albicans): 1 to 1.5 µg/mL (≈ 5.94 to 8.92 µM)
O=C1C=CCO1 [2(5H)-furanone] | >20 | >10 | >10 |  | anti-oxidant elicitation effect (ARE-driven gene expression) ([1]; comparison of FIG. 8): did not show significant anti-oxidant elicitation effects
